# Measured values as given in patent US8809386B2, “Use of dynamin ring stabilizers” (Children's Medical Research Institute, priority 2009, dated 2014).
# Assays:
# [1] = test system: mouse expressing ‘gain of function’ α-actinin 4 mutant protein; experiment: Proteinuria in mouse expressing gain of function α-actinin 4 mutant; format: in vivo; conditions: IP, 166 μg/100 g body weight, up to 6 hours after administration, FIG. 20
# Description: FIG. […] Proteinuria was measured using mouse Albumin-specific ELISA and Creatinine Companion assay kits (Exocell and Bethyl Laboratories) following manufacturer's protocols.
# Mice expressing a ‘gain of function’ mutation in the ACTN4 gene encoding for α-actinin 4 has been fully characterized (Kaplan et al. 2000; Henderson et al. 2008; Yao et al. 2004). These animals develop FP effacement and proteinuria due to “hyper bundling” activity of α-actinin 4 mutant that induces aggregation of stress fibers. Proteinuria develops at 4-6 weeks of age. The animals used in the present study were obtained from Dr. Martin Pollak, Brigham and Women's Hospital, Boston, Mass., USA. Proteinuric phenotype was confirmed by determination of urinary albumin and creatinine using mouse Albumin-specific ELISA and Creatinine Companion assay kits (Exocell and Bethyl Laboratories) following the manufacturer's protocols. The control animal was a litermate. Bis-T-23 was dissolved in 100% DMSO to make a 10 μg/μl stock solution, of which 5 μl was diluted in 200 μl of 1×PBS, and this was injected intraperitoneally (IP) into the test animal (166 μg/100 g body weight) at time 0 hr. Protein levels in the urine were measured every 2 hours post injection.
# [2] = test system: purified full length dynamin I; experiment: Electron microscopy of dynamin ring formation in the absence of a template; format: biochemical; conditions: 5.4 μM, 200 nM dynamin, no template, FIG. 9C
# Description: Dynamin was then examined by electron microscopy. […] The rings are bona fide dynamin rings (B).
# Next, the effect of a ring stabilizer Bis-T-23 on the formation of dynamin rings in the absence of a template like PS liposomes was examined. At high concentrations in vitro, dynamin is well known to self-assemble into rings that are detectable by EM (Hinshaw and Schmid, 1995). Such self assembly requires high dynamin concentrations typically in the order of 500-1000 nM and is not observed at lower dynamin concentrations. Specifically, the effect of Bis-T-23 (5.4 μM) on 200 nM dynamin in the absence of template was tested, which is well below the concentration threshold for self-assembly. […] High power images confirmed that the electron dense structures are bona fide dynamin rings (FIG. 9B). […] The findings with basal dynamin are completely unexpected for a dynamin inhibitor and are indicative of the ring stabilizer activity.
# [3] = test system: truncated dynamin I construct known as GG2; experiment: Basal GTPase activity of assembly-incompetent dynamin construct GG2; format: biochemical; conditions: FIG. 5
# Description: FIG. 5 is a graph showing the basal GTPase activity of the truncated dynamin I construct known as GG2, containing only the GTPase domain linked to a small part of the GED domain (Chappie et al 2009). Unlike full length dynamin this construct is known to be unable to self-assemble or to form rings. Bis-T-22 and -23 and imminodyn-22 have no effect on the basal activity of this assembly-incompetent construct.
# To verify that ring stabilizers require dynamin oligomerisation, a recombinant form of dynamin, called GG-2, which is dimeric yet is unable to self-associate into higher order oligomers (Chappie et al 2009) was tested. Ring stabilizers are unable to stimulate the basal activity of such constructs (FIG. 5).
# endocytosis = experiment: Endocytosis in cells (data not shown); format: cell-based
# Description: To determine if the in vitro action of the dynamin ring stabilizers also occurs in cells, the effect of Bis-T-23 on the actin cytoskeleton in cultured mouse podocytes was tested (FIG. 19). […] Thus, the observed increase in stress fibers is unlikely due to inhibition of endocytosis.
# [4] = test system: LPS-induced proteinuria, BALB/c mice; experiment: LPS-induced proteinuria in mice; format: in vivo, mouse; conditions: IP, 300 μg per 100 g body weight
# Description: FIG. 21 is a graph showing that the ring stabilizer Bis-T-23 rescues proteinuria in lipopolysaccharide (LPS) treated mice. LPS is a model for proteinuric kidney disease. Albumin levels were determined in 6 mice prior to (Con), 24 hours after LPS injection (2×LPS), and 2, 4, 6 and 8 h after administration of Bis-T-23 (open bars) or DMSO (delivery solution, grey bars). A decrease in proteinuria was noted from 2-8 hours after administration of a single dose of this ring stabilizer.
# A second model of acute proteinuria was then employed to test the ability of a dynamin ring stabilizer to ameliorate proteinuria in a reversible model of proteinuric kidney disease. LPS-induced proteinuria was utilized as previously described (Sever et al., 2007). Briefly, four week old female BALB/c mice were injected twice intraperitoneally (IP) with 200 μg of ultrapure LPS diluted in phosphate-buffered saline at a concentration of 1 mg/ml. Proteinuria developed within 48 h (FIG. 20, 2×LPS). Bis-T-23 was dissolved in DMSO to the appropriate concentrations and 300 μg per 100 g body weight was delivered by IP injection, and DMSO was used as a vehicle control. The level of protein in the urine was determined by using mouse Albumin-specific ELISA kit according to manufacturer's protocol (Bethyl Laboratories).
# full length dynamin I = molecular target: T1, full length dynamin I (UniProt Q05193); experiment: Basal dynamin GTPase activity in the absence of PS liposomes or other template (ring stabilizer activity); format: biochemical, sheep; conditions: 0.2 μM dyn1, 7 μM compound, 10 μM Gsn-F-actin complexes, FIG. 18
# T1 construct: rows headed: basal rate of GTP hydrolysis of dynamin
# T1 sequence (Q05193 1-864): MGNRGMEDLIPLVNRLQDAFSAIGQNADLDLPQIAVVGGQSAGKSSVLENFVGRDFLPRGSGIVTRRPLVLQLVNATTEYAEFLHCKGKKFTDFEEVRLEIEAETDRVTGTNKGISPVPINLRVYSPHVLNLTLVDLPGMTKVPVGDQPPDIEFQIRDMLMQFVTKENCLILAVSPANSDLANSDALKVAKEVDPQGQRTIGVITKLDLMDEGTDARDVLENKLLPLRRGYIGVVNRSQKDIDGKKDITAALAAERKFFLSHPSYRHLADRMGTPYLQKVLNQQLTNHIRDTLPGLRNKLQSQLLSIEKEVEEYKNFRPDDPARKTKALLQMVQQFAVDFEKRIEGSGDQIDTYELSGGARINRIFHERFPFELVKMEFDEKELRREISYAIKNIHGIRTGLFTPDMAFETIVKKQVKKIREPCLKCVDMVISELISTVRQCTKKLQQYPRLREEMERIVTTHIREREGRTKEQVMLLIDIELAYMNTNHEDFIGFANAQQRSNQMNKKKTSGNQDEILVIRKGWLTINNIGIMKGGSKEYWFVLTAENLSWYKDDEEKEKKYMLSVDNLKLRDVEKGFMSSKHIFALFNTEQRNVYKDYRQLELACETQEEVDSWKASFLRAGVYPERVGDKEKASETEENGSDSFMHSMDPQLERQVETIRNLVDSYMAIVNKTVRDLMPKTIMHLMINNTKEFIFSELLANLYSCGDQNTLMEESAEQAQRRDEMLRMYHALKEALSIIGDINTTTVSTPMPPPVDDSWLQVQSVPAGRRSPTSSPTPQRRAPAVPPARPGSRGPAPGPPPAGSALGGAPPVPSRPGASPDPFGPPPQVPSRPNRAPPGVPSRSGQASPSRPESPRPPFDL
smiles,measurement,setting,value
"N#CC(=Cc1cc(O)c(O)c(O)c1)C(=O)NCCCNC(=O)C(C#N)=Cc1cc(O)c(O)c(O)c1 [Bis-T-23, 2-cyano-N-{3-[2-cyano-3-(3,4,5-trihydroxyphenyl)-acryloylamino]-propyl}-3-(3,4,5-trihydroxyphenyl)-acrylamide]",proteinuria (urinary albumin and creatinine),[1],decrease in proteinuria to wild-type levels
same,increase in bona fide dynamin rings,[2],6 fold
same,effect on basal GTPase activity of GG2,[3],no effect
same,endocytosis,endocytosis,inhibits endocytosis
same,proteinuria (urine albumin),"[4]; 2-6 h after injection, FIG. 21",partially rescued proteinuria
same,proteinuria (urine albumin),[4]; 8 h after injection,ability to rescue proteinuria was reduced
same,basal rate of GTP hydrolysis of dynamin,full length dynamin I,increased the rate of basal dynamin GTP hydrolysis to a similar level to addition of Gsn-F-actin complexes
